Data: patent publication US20180360707A1, “COMPOSITION AND METHOD FOR INCREASE OF SURVIVAL AND STABILIZATION OF PROBIOTIC BACTERIA (PB) IN DETERGENT BASED COMPOSITIONS OF PERSONAL HYGIENE AND DOMESTIC PRODUCTS” (UAB "PROBIOSANUS", priority 2015, published 2018)

Test system: Bacillus coagulans DSM 2311
Assay: Analysis of encapsulated and non-capsulated bacteria viability (CFU survival) in detergent solution, cosmetic compound solution or final detergent based product
Assay type: cell-based
Protocol: For all experimental trails probiotic strain of Bacillus coagulans DSM 2311 was used which was obtained from DSMZ. Bacterial cell suspension was prepared by cultivation of B. coagulans cells in 100 mL of liquid nutrient broth medium (Oxoid) in 1000 mL Erlenmeyer flask, for 24 hours at 37° C. while shaking at 180 rmp. Prior to encapsulation the cells were collected by centrifugation at 6000 rpm using Rotofix 32 A Hettich, then washed twice and re-suspended in sterile 0.9% NaCl solution to obtain cell concentration of 10^11 per mL.
1 g of ˜10^10 bacteria-containing lyophilized and rehydrated or fresh microcapsules was added to the fixed volume (100 mL) of either: detergent solution, cosmetic compound containing solution or final formulation detergent based product, and incubated at 37° C. temperature. The samples were harvested at certain timepoints to evaluate bacterial survival. After sample harvest the bacterial capsules were washed twice with sterile water and added to a fixed volume of sterile 2% sodium citrate solution for liberation of encapsulated bacteria. The cell suspension was diluted from 10^1 to 10^5 fold and 100 μL of solution was plated on Petri dishes filled with Nutrient Broth solid medium. The survival rates [%] of capsulated and non-capsulated bacteria was estimated by comparing CFU averages at each sample point, from 3 replicas. See formulas:
[formula] • N—estimated CFU; • CFU—sum of calculated colonies from each evaluated Petri plates • Vp—plated volume • Vfd—final dilution volume • D—dilution fold • Survival of bacteria [%]=N(1+n)/N1*100 • N1—bacterial CFU's from first timepoint sample • N(1+n)—bacterial CFU's from following timepoint sample
1 g of 10^10 bacteria-containing rehydrated or fresh microcapsules was added to the fixed volume (100 mL) of detergent solution and incubated for 120 hours at 37° C. temperature. A parallel experiment was performed with non-capsulated cells (control group). After the sample harvest the bacterial capsules were washed twice with sterile water and added to the fixed volume of sterile 2% sodium citrate solution for liberation of encapsulated bacteria. The cell suspension was diluted 10^1-10^5 fold and 100 μL plated on replicates of Nutrient Broth solid medium. The survival rates [%] of capsulated and non-capsulated bacteria were estimated as described in the section—Analysis of encapsulated bacteria viability in detergent based solution, by comparing CFU averages at each sample time point from 3 replicas.
1 g of 10^10 bacteria containing lyophilized-rehydrated microcapsules was added to the fixed volume (100 mL) of solutions of: Grapefruit seed extract d-limonene, or Azadirachta indica extract and incubated for 120 hours at 37° C. temperature. A parallel experiment was performed with non-capsulated cells. After sample harvest the bacterial capsules were washed twice with sterile water and added to the fixed volume of sterile 2% sodium citrate solution for liberation of encapsulated bacteria. The cell suspension was diluted 10^1-10^5 fold and 100 μL of solution was plated on replicates of Nutrient Broth solid medium. The survival rates [%] of capsulated and non-capsulated bacteria were estimated as described in the section—Analysis of encapsulated bacteria viability in detergent based solution, by comparing CFU averages at each sample point, from 3 replicas. […]

CCCCCCCCCCCCOS(=O)(=O)[O-].[Na+] [SLS, sodium lauryl sulphate]
non-capsulated bacteria inactivated (6.7% sodium lauryl sulphate (SLS) solution, 37° C.): 80%

C=C(C)[C@H]1CC=C(C)CC1 [terpenes, d-limonene]
non-capsulated B. Coagulans bacteria inactivated (0.7% terpene d-limonene solution, in 2 hours): 100%

cocamide diethanolamine
non-capsulated bacteria inactivated (3% cocamide diethanolamine solution, 37° C.): 75%

cocoamide propyl betaine [CAPB]
non-capsulated bacteria (starting titers) inactivated (cocoamide propyl betaine (CAPB) 6.7% solution, after 0.5 h, 37° C.): 97%

cocoglycozide
non-capsulated bacteria inactivated (7% cocoglycozide solution, 37° C.): 75%
